The results in this text go back to PMC6271254, “Antibacterial and EGFR-Tyrosine Kinase Inhibitory Activities of Polyhydroxylated Xanthones from Garcinia succifolia” (Molecules, 2014).

The assay concerns the target epidermal growth factor receptor (EGFR) tyrosine kinase (Homo sapiens, UniProt P00533). As to the kind of experiment: fluorescence tyrosine kinase assay (Antibody Beacon detection), dose-response. The format is biochemical.

Chain of epidermal growth factor receptor (EGFR) tyrosine kinase (P00533 25-1210): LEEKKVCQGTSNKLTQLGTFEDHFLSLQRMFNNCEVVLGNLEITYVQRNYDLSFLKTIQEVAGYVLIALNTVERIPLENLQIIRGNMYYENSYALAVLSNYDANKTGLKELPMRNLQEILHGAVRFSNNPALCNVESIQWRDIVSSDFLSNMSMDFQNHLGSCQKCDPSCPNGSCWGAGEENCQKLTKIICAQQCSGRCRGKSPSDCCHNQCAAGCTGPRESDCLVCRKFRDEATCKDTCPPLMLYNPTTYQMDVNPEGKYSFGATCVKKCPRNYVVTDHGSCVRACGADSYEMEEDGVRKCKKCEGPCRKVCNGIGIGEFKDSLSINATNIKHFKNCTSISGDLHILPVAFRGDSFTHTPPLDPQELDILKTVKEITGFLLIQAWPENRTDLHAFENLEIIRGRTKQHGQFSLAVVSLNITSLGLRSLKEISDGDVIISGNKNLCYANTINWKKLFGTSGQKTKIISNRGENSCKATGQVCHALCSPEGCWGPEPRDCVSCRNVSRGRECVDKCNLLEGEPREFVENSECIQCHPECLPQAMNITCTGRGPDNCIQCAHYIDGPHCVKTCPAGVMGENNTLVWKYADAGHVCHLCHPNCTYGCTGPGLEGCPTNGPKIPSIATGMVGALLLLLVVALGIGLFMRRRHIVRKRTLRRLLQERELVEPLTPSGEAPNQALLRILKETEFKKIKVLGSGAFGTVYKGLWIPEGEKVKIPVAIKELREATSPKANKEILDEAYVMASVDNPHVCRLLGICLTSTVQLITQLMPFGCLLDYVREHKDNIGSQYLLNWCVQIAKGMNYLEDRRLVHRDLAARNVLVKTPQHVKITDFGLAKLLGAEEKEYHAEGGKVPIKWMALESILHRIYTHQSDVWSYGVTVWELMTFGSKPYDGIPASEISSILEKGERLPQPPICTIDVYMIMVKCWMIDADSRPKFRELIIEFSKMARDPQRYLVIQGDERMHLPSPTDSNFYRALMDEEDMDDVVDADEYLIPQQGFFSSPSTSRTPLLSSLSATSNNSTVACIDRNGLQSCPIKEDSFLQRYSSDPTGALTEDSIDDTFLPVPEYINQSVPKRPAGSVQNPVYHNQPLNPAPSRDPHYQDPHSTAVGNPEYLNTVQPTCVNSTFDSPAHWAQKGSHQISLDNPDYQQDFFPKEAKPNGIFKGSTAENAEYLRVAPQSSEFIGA

A word on the IC50: it is the point on the concentration scale where inhibition reaches its midpoint. A lower IC50 goes with greater potency in that assay. `O=c1c2cc(O)ccc2oc2cccc(O)c12` [compound 2, 1,7-dihydroxyxanthone] registered a half-inhibitory concentration (IC50) of 223 nM.

With `O=c1c2cccc(O)c2oc2cccc(O)c12` [compound 1, 1,5-dihydroxyxanthone], half-maximal inhibition (IC50) was put at 90.3 nM.
